In series [1] the test system is multi-resistant Plutella xylostella larvae having the G4946E resistance mutation (strain R1). The experiment in a line: Resistant Plutella xylostella R1 (Diamond Back Moth) Larvicide L3, Feeding/Contact. It counts as in vivo. As to conditions: for EC80: Plutella xylostella, in Brassica rapa, 96 h, read-out: Rate providing at least 80% control of the resistant strain of Plutella xylostella R1. The method, then: Resistant Plutella xylostella R1 (Diamond Back Moth) Larvicide L3, Feeding/Contact
Chinese cabbage plants were sprayed with diluted test solutions in an application chamber. Cut off leaves were placed into petri dishes with wetted filter paper and infested 1 day after application with 10 L3 multi-resistant Plutella xylostella larvae having the G4946E resistance mutation. Samples were assessed 4 days after infestation for mortality and growth regulation. CTPR was used as standard and a resistance factor of 146 was obtained for this strain.
Plutella xylostella resistant strain R1 originally collected from Taiwan in 2012 that carries the RyR mutation G4946E conferring resistance to diamides. The strain is reared on cabbage plants (Brassica aleracea) and selected approximately every two weeks with chlorantraniliprole.

Series [2] concerns Plutella xylostella resistant strain R4 (RyR mutation G4946E). Nature of the series: Resistant Plutella xylostella R4 (Diamond back moth) larvicide L1, feeding/contact. It counts as in vivo. As to conditions: for Rate providing at least 80% control of the resistant strain of Plutella xylostella R4: L1, artificial diet in 24-well plates, around 30 eggs, mortality vs untreated assessed 8 days after infestation. The method, then:
Resistant Plutella xylostella R^4 (Diamond back moth) larvicide L1, feeding/contact 24-well microtiter plates with artificial diet were treated with aqueous test solutions prepared from 10′000 ppm DMSO stock solutions by pipetting. After drying, around 30 Plutella eggs were pipetted through a plastic stencil onto a gel blotting paper and the plate was closed with it. The samples were assessed for mortality in comparison to untreated samples 8 days after infestation.
CTPR was used as standard and a resistance factor of 242 was obtained for this strain
Plutella xylostella resistant strain R4 originated in the lab in 2021 from crossing the R1 strain with a lab-reared susceptible P. xylostella strain (SUS). R4 can be reared and tested on artificial diet and also carries the RyR mutation G4946E conferring resistance to diamides. The strain is selected approximately every two weeks with chlorantraniliprole.

The structures appear in SMILES notation. In brackets after ≈: the same amount, converted by molar mass.

Turning to `CNC(=O)c1cc2cc(Br)ccc2c(Br)c1NC(=O)c1cc(C(F)(F)F)nn1-c1ncccc1Cl`, the EC80 in series [1] was 50 µg/mL (≈ 79.2 µM). Same read-out and setting: with `CNC(=O)c1cc2cc(Br)ccc2c(Br)c1NC(=O)c1cc(OCC(F)(F)F)nn1-c1ncccc1Cl` the figure was 12.5 µg/mL (≈ 18.9 µM).

As for `CC(C)NC(=O)c1cc2nn(C)cc2c(Cl)c1NC(=O)c1cc(C(F)(F)F)nn1-c1ncccc1Cl`, the “Rate providing at least 80% control of the resistant strain of Plutella xylostella R4” value (from here on “Rate providing at least 80% control”) in series [2] is reported as above 50 ppm. Besides, the EC80 in series [1] is above 50 µg/mL. For the compound `CNC(=O)c1cc2cc(Br)ccc2c(Br)c1NC(=O)c1cc(Br)nn1-c1ncccc1Cl`, in series [1], the EC80 was above 200 µg/mL. On the same count and under the same terms, the figure for `CNC(=O)c1cc2cc(Cl)ccc2c(Cl)c1NC(=O)c1cc(Br)nn1-c1ncccc1Cl` is 200 µg/mL (≈ 361 µM); for `O=C(NC1CC1)c1cc2cc(Br)ccc2c(Cl)c1NC(=O)c1cc(Br)nn1-c1ncccc1Cl` it is 200 µg/mL (≈ 320 µM); for `CC(C)NC(=O)c1cc2cc(Br)ccc2c(Cl)c1NC(=O)c1cc(Br)nn1-c1ncccc1Cl` it is 200 µg/mL (≈ 319 µM). Still for that read-out and setting: the figure for `CNC(=O)c1cc2nc(C(F)(F)F)ccc2c(C)c1NC(=O)c1cc(C(F)F)nn1-c1ncccc1Cl` is 200 µg/mL (≈ 371 µM). For the compound `CNC(=O)c1cc2nc(C)oc2c(C)c1NC(=O)c1cc(Br)nn1-c1ncccc1Cl`, the “Rate providing at least 80% control” value in series [2] was above 50 ppm. For `CNC(=O)c1cc2cc(Br)ccc2c(Cl)c1NC(=O)c1cc(C(F)(F)F)nn1-c1ncccc1Cl`, the EC80 in series [1] was above 200 µg/mL. Turning to `CNC(=O)c1cc2cc(Br)ccc2c(Cl)c1NC(=O)c1cc(Cl)nn1-c1ncccc1Cl`, the EC80 in series [1] is above 200 µg/mL. `Cc1c(NC(=O)c2cc(C(F)(F)F)nn2-c2ncccc2Cl)c(C(N)=O)cc2c1OC(F)(F)O2` yielded a melting point of 223 to 225 °C. Same read-out and setting: with `NC(=O)c1cc2ccccc2c(Cl)c1NC(=O)c1cc(OCC(F)(F)C(F)(F)F)nn1-c1ncccc1Cl` the figure was 264 to 266 °C. Same read-out and setting: with `Cc1c(NC(=O)c2cc(Br)nn2-c2ncccc2Cl)c(C(N)=O)cc2nn(C)cc12` the figure was 242 to 244 °C. The compound `NC(=O)c1cc2cc(Br)ccc2c(Cl)c1NC(=O)c1cc(Cn2ncc3c(Cl)cccc32)nn1-c1ncccc1Cl` yielded a melting point of 149 to 157 °C.

In turn, `NC(=O)c1cc2cc(Br)ccc2c(Cl)c1NC(=O)c1cc(Cn2nnc(C(F)(F)F)n2)nn1-c1ncccc1Cl` returned a melting point of 190 to 226 °C. For `CNC(=O)c1cc(Cl)cc(C)c1NC(=O)c1cc(Br)nn1-c1ncccc1Cl` [CTPR, chlorantraniliprole, reference compound], the resistance factor was 242 in series [2] (strain R4, CTPR used as standard) and 146 in series [1] (strain R1, CTPR used as standard). Take `NC(=O)c1cc2cc(Br)ccc2c(Br)c1NC(=O)c1cc(OCC(F)(F)F)nn1-c1ncccc1Cl` [P.1, 2-(3-chloro-2-pyridyl)-N-(1,6-dibromo-3-carbamoyl-2-naphthyl)-5-(2,2,2-trifluoroethoxy)pyrazole-3-carboxamide]: the EC80 in series [1] is 3 µg/mL (≈ 4.63 µM). Still for that read-out and setting: the figure for `NC(=O)c1cc2cc(Br)ccc2c(Br)c1NC(=O)c1cc(C(F)(F)F)nn1-c1ncccc1Cl` [P.4, 2-(3-chloro-2-pyridyl)-N-(1,6-dibromo-3-carbamoyl-2-naphthyl)-5-(trifluoromethyl)pyrazole-3-carboxamide] is 12.5 µg/mL (≈ 20.2 µM); for `Cc1c(NC(=O)c2cc(C(F)F)nn2-c2ncccc2Cl)c(C(N)=O)cc2nc(C(F)(F)F)ccc12` [P.7, 6-[[2-(3-chloro-2-pyridyl)-5-(difluoromethyl)pyrazole-3-carbonyl]amino]-5-methyl-2-(trifluoromethyl)quinoline-7-carboxamide] it is 12.5 µg/mL (≈ 23.8 µM). Still for that read-out and setting: the figure for `NC(=O)c1cc2cc(Br)ccc2c(Br)c1NC(=O)c1cc(Br)nn1-c1ncccc1Cl` [P.8, 5-bromo-2-(3-chloro-2-pyridyl)-N-(1,6-dibromo-3-carbamoyl-2-naphthyl)pyrazole-3-carboxamide] is 50 µg/mL (≈ 79.6 µM).

As to `NC(=O)c1cc2ccccc2c(Cl)c1NC(=O)c1cc(C(F)(F)F)nn1-c1ncccc1Cl` [P.10, N-(3-carbamoyl-1-chloro-2-naphthyl)-2-(3-chloro-2-pyridyl)-5-(trifluoromethyl)pyrazole-3-carboxamide], the melting point lay within 155 to 157 °C. The same measure, in the same setting: the figure for `NC(=O)c1cc2ccccc2c(Cl)c1NC(=O)c1cc(OCC(F)(F)F)nn1-c1ncccc1Cl` [P.11, N-(3-carbamoyl-1-chloro-2-naphthyl)-2-(3-chloro-2-pyridyl)-5-(2,2,2-trifluoroethoxy)pyrazole-3-carboxamide] is 158 to 160 °C. Still for that read-out and setting: the figure for `COc1cc(C(=O)Nc2c(C(N)=O)cc3ccccc3c2Cl)n(-c2ncccc2Cl)n1` [P.13, N-(3-carbamoyl-1-chloro-2-naphthyl)-2-(3-chloro-2-pyridyl)-5-methoxy-pyrazole-3-carboxamide] is 154 to 156 °C. Same read-out and setting: with `NC(=O)c1nc2ccccc2c(Cl)c1NC(=O)c1cc(Br)nn1-c1ncccc1Cl` [P.18, 3-[[5-bromo-2-(3-chloro-2-pyridyl)pyrazole-3-carbonyl]amino]-4-chloro-quinoline-2-carboxamide] the figure was 204 to 206 °C; with `NC(=O)c1cc2ccccc2c(Cl)c1NC(=O)c1cc(OC(F)F)nn1-c1ncccc1Cl` [P.20, N-(3-carbamoyl-1-chloro-2-naphthyl)-2-(3-chloro-2-pyridyl)-5-(difluoromethoxy)pyrazole-3-carboxamide], 143 to 145 °C. As to `NC(=O)c1cc2cc(Cl)ccc2c(Cl)c1NC(=O)c1cc(Br)nn1-c1ncccc1Cl` [P.25, 5-bromo-N-(3-carbamoyl-1,6-dichloro-2-naphthyl)-2-(3-chloro-2-pyridyl)pyrazole-3-carboxamide], the EC80 in series [1] was 50 µg/mL (≈ 92.7 µM). Still for that read-out and setting: with `NC(=O)c1cc2cc(Br)ccc2c(Cl)c1NC(=O)c1cc(Cl)nn1-c1ncccc1Cl` [P.26, N-(6-bromo-3-carbamoyl-1-chloro-2-naphthyl)-5-chloro-2-(3-chloro-2-pyridyl)pyrazole-3-carboxamide] the figure was 50 µg/mL (≈ 92.7 µM); with `NC(=O)c1cc2cc(Br)ccc2c(Cl)c1NC(=O)c1cc(Br)nn1-c1ncccc1Cl` [P.27, 5-bromo-N-(6-bromo-3-carbamoyl-1-chloro-2-naphthyl)-2-(3-chloro-2-pyridyl)pyrazole-3-carboxamide], 50 µg/mL (≈ 85.6 µM). Same read-out and setting: the figure for `NC(=O)c1cc2cc(Br)ccc2c(Cl)c1NC(=O)c1cc(C(F)(F)F)nn1-c1ncccc1Cl` [P.28, N-(6-bromo-3-carbamoyl-1-chloro-2-naphthyl)-2-(3-chloro-2-pyridyl)-5-(trifluoromethyl)pyrazole-3-carboxamide] is 50 µg/mL (≈ 87.2 µM).

Compound `NC(=O)c1cc2cc(Br)ccc2c(Br)c1NC(=O)c1cc(Cl)nn1-c1ncccc1Cl` [P.31, 5-chloro-2-(3-chloro-2-pyridyl)-N-(1,6-dibromo-3-carbamoyl-2-naphthyl)pyrazole-3-carboxamide] showed a melting point of 170 to 172 °C. Same read-out and setting: with `Cc1ccc2c(C)c(NC(=O)c3cc(C(F)(F)F)nn3-c3ncccc3Cl)c(C(N)=O)cc2c1` [P.32, N-(3-carbamoyl-1,6-dimethyl-2-naphthyl)-2-(3-chloro-2-pyridyl)-5-(trifluoromethyl)pyrazole-3-carboxamide] the figure was 216 to 218 °C. Take `Cn1cc2c(Cl)c(NC(=O)c3cc(C(F)(F)F)nn3-c3ncccc3Cl)c(C(N)=O)cc2n1` [P.36, 4-chloro-5-[[2-(3-chloro-2-pyridyl)-5-(trifluoromethyl)pyrazole-3-carbonyl]amino]-2-methyl-indazole-6-carboxamide]: the “Rate providing at least 80% control” value in series [2] is reported as 12.5 ppm. Besides, in series [1], the EC80 amounted to 3 µg/mL (≈ 6.02 µM). `Cc1c(NC(=O)c2cc(OCC(F)(F)F)nn2-c2ncccc2Cl)c(C(N)=O)cc2ncsc12` [P.44, 6-[[2-(3-chloro-2-pyridyl)-5-(2,2,2-trifluoroethoxy)pyrazole-3-carbonyl]amino]-7-methyl-1,3-benzothiazole-5-carboxamide] registered a melting point of 135 to 140 °C.

For `Cc1nc2cc(C(N)=O)c(NC(=O)c3cc(Br)nn3-c3ncccc3Cl)c(C)c2s1` [P.45, 6-[[5-bromo-2-(3-chloro-2-pyridyl)pyrazole-3-carbonyl]amino]-2,7-dimethyl-1,3-benzothiazole-5-carboxamide], the melting point lay in the range of 175 to 180 °C. Consider `Cc1nc2cc(C(N)=O)c(NC(=O)c3cc(Br)nn3-c3ncccc3Cl)c(C)c2o1` [P.46, 6-[[5-bromo-2-(3-chloro-2-pyridyl)pyrazole-3-carbonyl]amino]-2,7-dimethyl-1,3-benzoxazole-5-carboxamide], for which, in series [2], the “Rate providing at least 80% control” value is recorded as 12.5 ppm.

Values taken from patent US20240251795A1, “METHOD FOR C[…] RESISTANT PESTS & COMPOUNDS THEREFOR” (priority 2021, published 2024).
